The results in this text go back to EP0727211A1, “Use of src SH2 specific compounds to treat a bone resorption disease” (SMITHKLINE BEECHAM CORPORATION, priority 1995, dated 1996).

pIC50: −log10 of the molar value.

One test deals with T1, human hcp SH2 domain (Homo sapiens, UniProt P29350).
T1 sequence (P29350 4-100): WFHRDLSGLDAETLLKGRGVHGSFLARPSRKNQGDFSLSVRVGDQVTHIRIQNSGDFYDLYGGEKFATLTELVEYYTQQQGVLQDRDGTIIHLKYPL
Description: SH2 domain / pY peptide binding assay (ELISA-based, 96 well plate), hcp SH2. As to conditions: cloned human SH2 domain fusion protein; 0.1 uM biotinylated pY peptide; Table I; read-out: Hcp (IC50). The procedure: The inhibitory activity of compounds at the different human SH2 domains was determined in vitro using SH2 domains expressed as fusion proteins in E. coli. The SH2 domains used herein were the human forms of the src SH2 domain, Grb2 SH2 domain, lck SH2 domain, fyn SH2 domain, SH-PTP2 SH2 domain, p85 SH2 domain and hcp SH2 domain.
The fusion proteins containing the src, lck and hcp SH2 domains were expressed as the general sequence: DET1-DET2-spacer-ek-SH2, where DETI, DET2, spacer, ek and SH2 are as described below. DET1 ("defined epitope tag 1") (SEQ ID NO: 1) is an 11 amino acid sequence found in the Human Immunodeficiency Virus Type 1 (HIV-1) envelope protein gp120 (or gp160). Monoclonal antibodies to various epitopes of HIV-1 gp120 (or gp160) are known in the art, see, for example U.S. Patent 5,166,050. One preferred example is monoclonal antibody 178.1 (see, e.g., Thiriart et al., J. Immunol., 143:1832-1836 (1989)), which was prepared by immunization of mice with a yeast-expressed HIV-1 gp160 molecule from strain BH10 (Ratner et al., Nature, 313:277-284 (1985)). This tag was used for detection of expression (by Western blot), for purification of the protein (by affinity chromatography), and for configuring assays in which the fusion protein was captured or immobilized using the 178.1 antibody. DET2 is a hexahistidine sequence tag (SEQ ID NO: 2) which binds to nickel-containing resins and was used for purification purposes. Spacer (SEQ ID NO: 3) was utilized to design a BamH1 restriction site at the indicated position of the construct. The term -ekrefers to a recognition sequence (SEQ ID NO: 4) for the enterokinase protease which provides for the optional removal of the tags from the SH2 domain, thus producing an SH2 domain that contains no extraneous amino acids. SH2 domains which contain no extraneous amino acids are preferable to tagged protein for crystallography studies. SH2 refers to the SH2 domains of different proteins.
Cloning and expression of human hcp SH2 domain containing tags and an enterokinase proteolytic cleavage site (DET1-DET2-spacer-ek-hcp SH2).
A DNA sequence encoding protein ek-hcp SH2 was reverse transcriptase-PCR amplified from human fetal liver RNA. RNA isolation used Tri-Reagent (Molecular Research Center Inc.) and the Reverse Transcriptase system (GIBCO-BRL) according to the manufacture's instructions. PCR was carried out using the following primers: [formula]
The PCR product was digested with BglII and XbaI, followed by isolation of the digested fragment on an agarose gel. The fragment was ligated into BamHI-XbaI-digested expression vector containing the tagged human src gene DET1-DET2-spacer-ek-src SH2 described in Procedure 2 above. In that vector, the BamHI site is located in between the coding regions for DET2 and ek, and the XbaI site is located after the 3' end of the SH2 coding region. Thus, the ek-hcp SH2 sequence replaced the ek-src SH2 sequence in the above vector. The ligation reaction was used to transform E. coli MM294cI^+. The construct containing DET1-DET2-spacer-ek-hcp SH2 was confirmed by DNA sequencing (SEQ ID NO: 7) and used to transform E. coli GI698 (Invitrogen Corporation, San Diego, CA). Induction of the phage lambda promoter was induced by addition of tryptophan to the culture medium to 10 mg/ml, per the manufacture's instructions. A Coomassie-Blue-stained, Western-blot-positive induced protein band with an apparent molecular weight of 15,000 was observed after tryptophan induction of cells growing at 30° C.
Cells were lysed at neutral pH by sonication in the presance of lysozyme. After centrifugation, the insoluble pellet was solubilized with 8 M urea in Tris buffer pH 8 and bound onto a Ni^++NTA column. The resin was washed with equilibration buffer (Tris buffer pH 8 containing 0.5 M NaCl, 8 M urea and 5 mM BME) and the same buffer containing 15 mM imidazole. […]
For orientation: ELISA stands for enzyme-linked immunosorbent assay.
As for “4-acetamido-benzamido-trans-4-methyl-cyclohexyl-N-1-(amino-R-2-(methoxy methyl)-pyrrolidine) carboxamide [Compound 8]”, the pIC50 is < 4.00.

Consider `Cc1nc2sc3c(c2c2[nH][nH]c(=O)c12)CCC1(C3)OCCO1` [Compound 3, 8,8-Ethylenedioxy-2,3,7,8,9,10-hexahydro-4-methyl-1H-benzo[b]thieno[2,3-b]pyrazolo[3,4-d]pyridin-3-one], for which the pIC50 was 5.92.

For the compound `Cc1ccc(C(=O)c2ccc(C(=O)c3ccc(CC=O)cc3)cc2)cc1` [Compound 4, 4-[4-(4-Methylbenzoyl)benzoyl]phenylacetaldehyde], the pIC50 was 4.52.

Turning to `Cc1nc2sc3c(c2c2c1c(=O)[nH]n2C)CCC1(C3)OCCO1` [Compound 5, 1,4-Dimethyl-8,8-ethylenedioxy-2,3,7,8,9,10-hexahydro-1H-benzo[b]thieno[2,3-b]pyrazolo[3,4-d]pyridin-3-one], the pIC50 is 7.00.

In the case of `CCCCCCNC(=O)[C@H]1CC[C@H](CNC(=O)c2ccc([N+](=O)[O-])cc2)CC1` [Compound 7, 4-nitro-benzamido-trans-4-methyl-cyclohexyl-N-hexyl carboxamide], the pIC50 was < 3.52.

Consider `CCCNC(=O)[C@H]1CC[C@H](CNC(=O)/C=C/c2ccc(C=O)cc2)CC1` [Compound 9, 4-formyl-E-cinnamido-trans-4-methyl-cyclohexyl-N-(propyl) carboxamide], for which the pIC50 was 4.92.

On to `Cc1nc2sc3c(c2c2[nH][nH]c(=O)c12)CCCC3` [Compound 10, 2,3,7,8,9,10-Hexahydro-4-methyl-1H-benzo[b]thieno[2,3-b]pyrazolo[3,4-d]pyridin-3-one], for which the negative logarithm of the IC50 (pIC50) is 5.92.

The same test, now with this note: read-out: Hcp (IC50); cloned human SH2 domain fusion protein; 0.1 uM biotinylated pY peptide; Table I.
With `N[C@@H](Cc1cc(Br)c(Oc2ccc(O)c(Cc3ccc(O)nn3)c2)c(Br)c1)C(=O)O` [Compound 2, L-3,5-Dibromo-3'-(6-oxo-3(1H)-pyridazinylmethyl)-thyronine], the pIC50 was 6.05.

In general, pIC50 refers to the negative decadic logarithm of the IC50, by convention in mol/L.
